# Experimental data from article PMC5855875, “Teixobactin analogues reveal enduracididine to be non-essential for highly potent antibacterial activity and lipid II binding” (Chemical Science, 2017).
# Read-outs that look alike come from different tables or passages of the source.
# Legend:
# [1] = tested on: MRSA 2: MRSA DR 42412 (sputum); experiment: microbe, parasite or virus in culture
# Method: (§1) VIII. MIC testing (extended panel)
# (§2) Bacterial cultures were grown overnight i n Mueller-Hinton Agar (MHA) plates and adjusted to a final concentration of 10 5 – 106 CFU/ml. 100 µl of inoculum in Meuller -Hinton broth (MHB) was mixed with equal volume of peptides (dissolved in MHB) at 2x their concentration in a 96 well plate. In parallel experiments, MIC values were determined in the media containing polysorbate 80 (0 .002%, v/v) to […]
# (§3) prevent non-specific adsorption of the peptides to plastic surfaces. The final peptides concentrations […]
# (§4) Positive and negative controls contained 200 µl of inoculum without any peptide dissolved in broth, respectively. The 96 well plates were then incubated at 37 °C for 24 h. […]
# (§5) 80. Strain information: MRSA 1: MRSA ATCC 700699, MRSA 2: MRSA DR 42412 (sputum), MRSA
# (§6) 3: MRSA DM21455 (eye). […] Staphylococcus aureus ATCC
# MRSA ATCC 33591 = experiment: microbe, parasite or virus in culture; details: 24 h
# Method: (§7) were grown in Mueller Hinton broth (Oxoid) in triplicate. All incubations were at 37°C. Dilutions were carried out in triplicate. 100 µl of autoclaved Mueller Hinton broth was added to wells 2-12 in a 96-well plate. 200 µl of the peptide was added to well one at a concentration of 256 µg/mL. 100µl of peptide in well one was taken up and pipetted into well two. The mixture was then mixed via pipetting before 100µl was taken up and pipetted into well three. This process was repeated up to well 11. Once […]
# (§8) peptide present. Thus, the concentrations (in µg/mL) were: 256, 128, 64, 32, 16, 8, 4, 2, 1, 0.5, 0.25 and no peptide present. Each well was then inoculated with 100µl of bacteria that had been diluted to an […]
# (§9) This was repeated three times. The 96-well plates were then incubated at 37°C for 24 hours. The MIC was determined to be the lowest concentration at which there was no growth visible. […]
# (§10) was repeated at an altered initial concentration of 64 µg/ml. Therefore, the new concentrations for MIC […]
# as §1, §2
# [2] = Lipid II TLC binding assay; details: peptide : lipid II 2 : 1; 50 mM Tris/HCl, pH 7.5, 30 min, room temperature; three independent experiments
# Method: X. Complex formation of teixobactin with lipid II and geranyl pyrophosphate Complex formation of teixobactin analogues 8 (Ala10-teixobactin) and 16 (Arg10-teixobactin) with lipid II and geranyl pyrophosphate was performed using TLC as described previously.7 Binding of teixobactin to lipid II and geranyl pyrophosphate was analysed by incubating 30 µL of 2 nmol of each precursor with 2 or 4 nmoles of teixobactin in 50 mM Tris/HCl, pH 7.5, for 30 min at room temperature. Complex formation was analysed by extracting unbound precursors from the reaction mixture with 30 µL n- butanol/6M pyridine acetate (pH 4.2) (2:1; vol/vol) followed by TLC analysis of the organic layer using chloroform/methanol/water/ammonia (88:48:10:1, v/v/v/v) as the solvent and detection of lipid/phosphate containing precursors by phosphomolybdic acid staining. The TLC figures represent the results obtained through thr ee independent experiments.
# Figure S76 : Binding of teixobactin analogues 8 (Ala10-teixobactin ) and 16 (Arg10-teixobactin) with lipid II using the protocols described in literature .7 Partial binding is observed when the ratio of lipid II to the analogue is 1:1 (indicated by lighter spots on the TLC) and complete binding is observed when the ratio of lipid II to the analogue is 1:2 in case of analogue 16 and 1:4 in case of analogue 8 (indicated […]
# (§11) (also on this page, place not known: polyso rbate vancomycin , concentr ation 80 . wer e µ l (10 1-105 10 10 previously n - TL C three S76: (Ala10-teixobactin) literature.7 Lipid II Lipid II: Compound 8 = 1:1 Lipid II: Compound 16 = 1:1 Lipid II: Compound 8 = 1:2 Lipid II: Compound 16 = 1:2 Lipid II: Compound 8 = 1:4)
# M. smegmatis ATCC 607 = experiment: microbe, parasite or virus in culture
# Method: as §7, §8, §9, §10
# Middlebrook 7H9 broth (SIGMA) supplemented to 5% Middlebrook ADC (SIGMA) growth
# VRE 1: VRE ATCC 700802 = experiment: organism not typed
# Method: as §1, §2, §3, §4, §5, §6
# VRE 2: VRE ATCC 29212 = experiment: organism not typed
# Method: as §1, §2, §3, §4, §5, §6
# [3] = tested on: Staphylococcus aureus ATCC 29213; experiment: microbe, parasite or virus in culture; details: for MIC: Staphylococcus aureus
# Method: as §1, §2, §3
# (§12) Positive and negative controls contained 200 µl of inoculum without any peptide dissolved in broth, respectively. The 96 well plates were then incubated at 37 °C for 24 h.
# (§13) All the experiments were performed in two independent duplicates and the MIC was determined as the […]
# (§14) Minimum bactericidal concentration
# (§15) The lowest concentration in which no visible colonies could be detected was taken as the MBC.
# as §5, §6
# [4] = tested on: MRSA 3: MRSA DM21455 (eye); experiment: microbe, parasite or virus in culture
# Method: as §1, §2, §3, §12, §13, §14, §15, §5, §6
# MRSA 1: MRSA ATCC 700699 = experiment: microbe, parasite or virus in culture
# Method: as §1, §2, §3, §12, §13, §14, §15, §5, §6
# MRSA DM21455 = experiment: Time-kill kinetics; format: cell-based, Methicillin-resistant Staphylococcus aureus; details: without polysorbate 80
# Method: IX. Time-dependent killing of bacteria by teixobactin analogues 12 and 13 Time-kill kinetics against MRSA DM21455 strains (clinical isolates from patients) was carried out in MHB. Cultures were grown overnight in MHA plates and adjusted to a final inoculum of 10^5 – 10^6 CFU/ml in MHB (containing 0.002% v/v, polysorbate 80) with teixobactin analogues 12 and 13 maintained at a final concentration of 0.5 µg/ml. For vancomycin, the concentration was varied from 0.5 – 16 µg/ml without polysorbate 80. The tubes were then incubated at 37 °C. 100 µl of cell suspension was withdrawn at various time points (0, 2, 4, 8, 24 h), serially diluted (101-105 fold dilutions) and plated onto a MHA plates and incubated for 24 h at 37 °C.
# Colonies were then enumerated […]. Colony counting too numerous to count (>300 colonies) was taken as 1010 CFU. Average values from two independent experiments are reported. […]
# as §11
# [5] = Staphylococcus aureus, MRSA, 24 h
# [6] = Staphylococcus aureus, MRSA, 24 h, read-out: MIC (with polysorbate 80)
# [7] = Staphylococcus aureus, MRSA, 24 h, read-out: MIC (without polysorbate 80)
# [8] = Enterococcus, 24 h, read-out: MIC (with polysorbate 80)
# [9] = Enterococcus, 24 h, read-out: MIC (without polysorbate 80)
smiles,measurement,setting,value
"CC[C@H](C)[C@H](NC(=O)[C@@H](Cc1ccccc1)NC)C(=O)N[C@@H](CO)C(=O)N[C@H](CCC(N)=O)C(=O)N[C@@H](C(=O)N[C@H](C(=O)N[C@@H](CO)C(=O)N[C@H]1C(=O)N[C@@H](C)C(=O)N[C@@H](CCCNC(=N)N)C(=O)N[C@@H]([C@@H](C)CC)C(=O)O[C@H]1C)[C@@H](C)CC)[C@@H](C)CC [Compound 16, Arg10-teixobactin]",MIC (without polysorbate 80),"[1]; 2: DR 42412 (sputum, 24 h)",2 µg/mL
same,MBC,"[1]; MRSA 2 (MRSA DR 42412), plated on MHA, 37 °C, 24 h",0.5 μg mL^–1
same,MIC,"[1]; MRSA 2 (MRSA DR 42412, sputum, clinical isolate), Mueller Hinton broth, 37 °C, 24 h (Table 2)",0.125 μg mL^–1
same,MIC (with polysorbate 80),"[1]; MRSA 2, MHB containing polysorbate 80 (0.002%, v/v), 37 °C, 24 h",0.125 µg/mL
same,MIC,"MRSA ATCC 33591; MRSA ATCC 33591, Mueller Hinton broth (Oxoid), peptides in DMSO containing 0.002% polysorbate 80, 37°C, triplicate",2 μg mL^–1
same,lipid II spot on TLC,[2],complete disappearance of the lipid II spot
same,MIC,"M. smegmatis ATCC 607; M. smegmatis ATCC 607, Middlebrook 7H9 broth with 5% ADC, 37°C, 140RPM, reading after 72 hours",1–2 μg mL^–1
same,MIC (without polysorbate 80),"VRE 1: VRE ATCC 700802; ATCC 700802, 24 h",4 µg/mL
same,MIC,"VRE 1: VRE ATCC 700802; VRE 1 (Enterococcus faecalis VRE ATCC 700802), Mueller Hinton broth (Table 2)",2 μg mL^–1
same,MIC (with polysorbate 80),"VRE 1: VRE ATCC 700802; VRE 1, MHB containing polysorbate 80 (0.002%, v/v), 37 °C, 24 h",2 µg/mL
same,MIC (without polysorbate 80),"VRE 2: VRE ATCC 29212; ATCC 29212, 24 h",4 µg/mL
same,MIC,"VRE 2: VRE ATCC 29212; VRE 2 (Enterococcus faecalis VRE ATCC 29212), Mueller Hinton broth (Table 2)",2 μg mL^–1
same,MIC (with polysorbate 80),"VRE 2: VRE ATCC 29212; VRE 2, MHB containing polysorbate 80 (0.002%, v/v), 37 °C, 24 h",2 µg/mL
same,MIC (without polysorbate 80),"[3]; ATCC 29213, 24 h",2 µg/mL
same,MIC (with polysorbate 80),"[3]; S. aureus ATCC 29213, MHB containing polysorbate 80 (0.002%, v/v), 37 °C, 24 h",0.25 µg/mL
same,MBC,"[3]; Staphylococcus aureus ATCC 29213, plated on MHA, 37 °C, 24 h",1 μg mL^–1
same,MIC (without polysorbate 80),"[4]; 3: DM21455 (eye, 24 h)",4 µg/mL
same,MBC,"[4]; MRSA 3 (MRSA DM21455), plated on MHA, 37 °C, 24 h",1 μg mL^–1
same,MIC,"[4]; MRSA 3 (MRSA DM21455, eye, clinical isolate), Mueller Hinton broth, 37 °C, 24 h (Table 2)",0.5 μg mL^–1
same,MIC (with polysorbate 80),"[4]; MRSA 3, MHB containing polysorbate 80 (0.002%, v/v), 37 °C, 24 h",0.5 µg/mL
same,MIC (without polysorbate 80),"MRSA 1: MRSA ATCC 700699; ATCC 700699, 24 h",4 µg/mL
same,MIC,"MRSA 1: MRSA ATCC 700699; MRSA 1 (MRSA ATCC 700699), Mueller Hinton broth, 37 °C, 24 h (Table 2)",1 μg mL^–1
same,MBC,"MRSA 1: MRSA ATCC 700699; MRSA 1 (MRSA ATCC 700699), plated on MHA, 37 °C, 24 h",2 μg mL^–1
same,MIC (with polysorbate 80),"MRSA 1: MRSA ATCC 700699; MRSA 1, MHB containing polysorbate 80 (0.002%, v/v), 37 °C, 24 h, two independent duplicates",1 µg/mL
"CN[C@H](CC(C)C)C(=O)N[C@H]1C(=O)N[C@@H](CC(N)=O)C(=O)N[C@H]2C(=O)N[C@H]3C(=O)N[C@H](C(=O)N[C@H](C(=O)O)c4cc(O)cc(O)c4-c4cc3ccc4O)[C@H](O)c3ccc(c(Cl)c3)Oc3cc2cc(c3O[C@@H]2O[C@H](CO)[C@@H](O)[C@H](O)[C@H]2O[C@H]2C[C@](C)(N)[C@H](O)[C@H](C)O2)Oc2ccc(cc2Cl)[C@H]1O [Compound 18, Vancomycin, reference compound]",MIC,[1]; [5],2 µg/mL
same,MIC,[1]; [6],1 µg/mL
same,MIC,[1]; [7],2 µg/mL
same,MIC,MRSA ATCC 33591; Staphylococcus aureus,2 µg/mL
same,time-kill outcome,"MRSA DM21455; 0.5 μg mL^–1, 37 °C",substantial growth was observed
same,concentration needed for similar effects as teixobactin analogues 12 & 13 in time-kill,MRSA DM21455; MRSA 21455,8 μg mL^–1
same,MIC,"M. smegmatis ATCC 607; Mycolicibacterium smegmatis, ATCC607, 72 h",> 64 µg/mL
same,MIC,VRE 1: VRE ATCC 700802,> 4 µg/mL
same,MIC,VRE 1: VRE ATCC 700802; [8],> 4 µg/mL
same,MIC,VRE 1: VRE ATCC 700802; [9],> 4 µg/mL
same,MIC,VRE 2: VRE ATCC 29212,> 4 µg/mL
same,MIC,VRE 2: VRE ATCC 29212; [8],> 4 µg/mL
same,MIC,VRE 2: VRE ATCC 29212; [9],> 4 µg/mL
same,MIC,"[3]; ATCC29213, 24 h, read-out: MIC (with polysorbate 80)",2 µg/mL
same,MIC,"[3]; ATCC29213, 24 h, read-out: MIC (without polysorbate 80)",4 µg/mL
same,MIC,"[3]; ATCC29213 / MSSA, 24 h",4 µg/mL
same,MIC,[4]; [5],2 µg/mL
same,MIC,[4]; [6],1 µg/mL
same,MIC,[4]; [7],2 µg/mL
same,MIC,"MRSA 1: MRSA ATCC 700699; Staphylococcus aureus, 24 h",2 µg/mL
same,MIC,"MRSA 1: MRSA ATCC 700699; Staphylococcus aureus, ATCC700699|MRSA, 24 h, read-out: MIC (with polysorbate 80)",1 µg/mL
same,MIC,"MRSA 1: MRSA ATCC 700699; Staphylococcus aureus, ATCC700699|MRSA, 24 h, read-out: MIC (without polysorbate 80)",2 µg/mL
